Measurements reported in PubChem BioAssay (NCI).
“And” between values parts separate entries of the source, which are not always exact repeats. Identical values can stand only once.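 Cells were grown in 96-well plates and exposed to each compound for 48 hours at five concentrations; endpoints were interpolated linearly between bracketing concentrations, or set to the highest concentration if not reached. GI50 is the concentration that inhibits growth by half. At the TGI there is no net growth.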

Assays:
Test in all cases: growth of human tumour cells (NCI), 48 h
ACHN renal = test system: ACHN renal
CAKI-1 renal = test system: CAKI-1 renal
DU-145 prostate = test system: DU-145 prostate
HOP-62 NSCLC = test system: HOP-62 NSCLC
K-562 leukemia = test system: K-562 leukemia
MDA-MB-231 breast = test system: MDA-MB-231 breast
NCI-H226 lung = test system: NCI-H226 lung
OVCAR-3 ovarian = test system: OVCAR-3 ovarian
SK-MEL-28 melanoma = test system: SK-MEL-28 melanoma
SR leukemia = test system: SR leukemia

Structure (SMILES) | GI50 (ACHN renal) | TGI (ACHN renal) | GI50 (CAKI-1 renal) | TGI (CAKI-1 renal) | GI50 (DU-145 prostate) | TGI (DU-145 prostate) | GI50 (HOP-62 NSCLC) | TGI (HOP-62 NSCLC) | GI50 (K-562 leukemia) | GI50 (MDA-MB-231 breast) | TGI (MDA-MB-231 breast) | GI50 (NCI-H226 lung) | TGI (NCI-H226 lung) | GI50 (OVCAR-3 ovarian) | TGI (OVCAR-3 ovarian) | GI50 (SK-MEL-28 melanoma) | TGI (SK-MEL-28 melanoma) | GI50 (SR leukemia) | TGI (SR leukemia) | TGI (K-562 leukemia)
CCOc1ccc2nc(-c3cccc(OCC(=O)NC(C)C)c3)nc(Nc3ccc(-c4cn[nH]c4)cc3)c2c1 | 0.675 µM | 2.96 µM | 0.968 µM | 3.87 µM | 0.403 µM | 2.91 µM | 0.399 µM | 2.22 µM | 0.454 µM | 1.68 µM | 10.7 µM | 0.783 µM | 3.19 µM | 1.34 µM | 3.12 µM | 1.13 µM | 3 µM | 1.13 µM | > 43 µM | –
O=CC(Br)C(Br)c1ccccc1 (stereo unspecified) | 1.64 µM | 3.12 µM | 2.6 µM | 6.98 µM | 2.26 µM | 5.74 µM | 13.3 µM | 27.8 µM | 0.963 µM | 2.01 µM | 4.22 µM | 6.8 µM | 18.7 µM | 1.32 µM | 2.67 µM | 2.31 µM | 6.35 µM | 0.445 µM | 2.81 µM | 6.84 µM
CSc1n(Cc2ccc3ccccc3c2)c(C)c[n+]1Cc1ccc2ccccc2c1 | 1.9 µM | 3.77 µM | 1.49 µM | 2.97 µM | 1.07 µM | 2.39 µM | 1.39 µM | 3.01 µM | 0.414 µM | 0.484 µM | 1.74 µM | 1.31 µM | 3.18 µM | 0.445 µM | 1.63 µM | 0.854 µM | 2.19 µM | 0.363 µM | 2.52 µM | 2.36 µM
O=C(O)C1C(=O)Oc2c(cccc2[N+](=O)[O-])C1O (stereo unspecified) | – | > 100 µM | – | > 100 µM | – | > 100 µM | – | > 100 µM | – | – | > 100 µM | – | > 100 µM | – | > 100 µM | – | > 100 µM | – | > 100 µM | > 100 µM
CCOC(=O)NC1=C(N2CC2)C(=O)C(NC(=O)OCC)=C(N2CC2)C1=O | 1.32 µM and 1.06 µM | 20.3 µM and 12.7 µM and 23.6 µM | 2.53 µM and 3.42 µM | 13.2 µM and 18.3 µM and 23.7 µM | – | 25 µM | 1.56 µM and 1.75 µM | 15.1 µM and 7.44 µM and 2.9 µM | 6.13 µM | – | 15.3 µM | 18 µM and 11 µM | 25 µM and 20 µM and 43 µM | 5.91 µM and 5.8 µM | 17.4 µM and 12.9 µM and 16.1 µM | 22.3 µM and 16.6 µM | 25 µM and 42.4 µM and 54.4 µM | 0.389 µM | 7.9 µM and 60.6 µM | 20.8 µM and 38.3 µM and 17 µM
Nc1nc2ccc3[nH]ncc3c2c2c1CCCC2 | 1.56 µM | 10.5 µM | 0.609 µM | 8.24 µM | 2.4 µM | 10.7 µM | 1.99 µM | 6.77 µM | 3.15 µM | 2.74 µM | 8.45 µM | 1.48 µM | 4.59 µM | 2.78 µM | 9.87 µM | 1.62 µM | 4.33 µM | 0.467 µM | – | 15 µM
O=C(NCCCCCCNC(=O)n1cc(F)c(=O)[nH]c1=O)NCCCOCCOCCOCCOCCOCCOCCOCCOCCOCCOCCOCCOCCOCCOCCOCCOCCOCCOCCOCCOCCOCCCNC(=O)C(O)C(O)C(OC1OC(CO)C(O)C(O)C1O)C(O)CO (stereo unspecified) | – | > 100 µM | – | > 100 µM | – | > 100 µM | – | > 100 µM | – | – | > 100 µM | – | > 100 µM | – | > 100 µM | – | > 100 µM | – | > 100 µM | > 100 µM
COc1ccc2nc3cc([N+](=O)[O-])ccc3c(NCCCN(CCO)CCO)c2c1 | 10 µM | 23 µM | 10.9 µM | 22.8 µM | 12.6 µM | 43.4 µM | 11.4 µM | 24.1 µM | 1.94 µM | 7.78 µM | 21.8 µM | 8.1 µM | 21.5 µM | 5.53 µM | 12.3 µM | 3.93 µM | 13 µM | 1.97 µM | 14.3 µM | 4.77 µM
Cc1cc([N+](=O)[O-])ccc1NS(=O)(=O)c1cc(Cl)ccc1Cl | 3.18 µM | > 100 µM | 2.54 µM | > 28.4 µM | 5.37 µM | > 100 µM | 3.21 µM | 16.1 µM | 3.56 µM | 3.36 µM | 16.2 µM | 2.87 µM | 14.3 µM | 3.24 µM | > 46.6 µM | 5.17 µM | > 94.6 µM | 4.52 µM | 27.6 µM | > 100 µM
CC(C)[NH-].CC(C)[NH-].O.O.[Cl][Pt+2][Cl] | 14.1 µM | 107 µM | 31.3 µM | 124 µM | 38.7 µM | 332 µM | 55.8 µM | 194 µM | 39.1 µM | 63.8 µM | 254 µM | 66 µM | 259 µM | 21.1 µM | 59.1 µM | 46.8 µM | 197 µM | 17.8 µM | 53.5 µM | 179 µM
